{"source": "paper PMC11995724", "about": "“Antibiotic target discovery by integrated phenotypic and activity-based profiling of electrophilic fragments” (Cell chemical biology, 2025)"}
{"assay": "in vitro", "conditions": "human, hek293t cells", "units": {"viability at 48 h, 25 µM": "%"}, "method": "Mammalian cytotoxicity measurement was performed using Cell Titer-Glo 2.0 Cell Viability Assay (Promega, G9243) according to the manufacturer protocol. In brief, mammalian cells were seeded into 384-well white plates (Greiner, 781080) and incubated at 37°C for one day. Compounds from the Cys-Library were dispensed into the assay plate using epMotion 96. The plates were then incubated at 37°C for two days. An equal volume of Cell Titer-Glo 2.0 reagent was added into each well of the assay plate using epMotion 96 and incubated at 22°C for 10 min, followed by luminescence measurement using a Cytation 5 plate reader (BioTek)."}
{"compound": "COc1ccc(NC(=O)C(C#N)=CC=Cc2ccccc2)cc1Cl", "note": "[8-M18, N-(3-chloro-4-methoxyphenyl)-2-cyano-5-phenylpenta-2,4-dienamide]", "viability at 48 h, 25 µM": 75.7}
{"compound": "CNC(=O)c1cc(OC2CCN(C(=O)C(C)Cl)C2)ccn1", "note": "(stereo not shown) [7-G03, 4-{[1-(2-chloropropanoyl)pyrrolidin-3-yl]oxy}-N-methylpyridine-2-carboxamide]", "viability at 48 h, 25 µM": 111}
{"compound": "C=CC(=O)NCc1nc(C2CC2)oc1C", "note": "[2-P13, N-[(2-cyclopropyl-5-methyl-1,3-oxazol-4-yl)methyl]prop-2-enamide]", "viability at 48 h, 25 µM": 52.6}
{"compound": "C=CC(=O)N1CCN(C(=O)c2cc(C)no2)CC1", "note": "[1-N19, 1-[4-(3-methyl-1,2-oxazole-5-carbonyl)piperazin-1-yl]prop-2-en-1-one]", "viability at 48 h, 25 µM": 102}
{"compound": "N#CC(=Cc1ccccc1)C(=O)NCc1ccc(F)cc1", "note": "[8-P10, 2-cyano-N-[(4-fluorophenyl)methyl]-3-phenylprop-2-enamide]", "viability at 48 h, 25 µM": 89}
{"compound": "N#CC(=Cc1c(Cl)cccc1Cl)C(=O)NCCc1ccccc1", "note": "[8-B14, 2-cyano-3-(2,6-dichlorophenyl)-N-(2-phenylethyl)prop-2-enamide]", "viability at 48 h, 25 µM": 2}
{"compound": "CCn1cc(CN(C)C(=O)C(C)Cl)nn1", "note": "(stereo not shown) [6-L22, 2-chloro-N-[(1-ethyl-1H-1,2,3-triazol-4-yl)methyl]-N-methylpropanamide]", "viability at 48 h, 25 µM": 94.7}
{"compound": "C=CC(=O)N1CCOC(c2ccccc2Cl)C1", "note": "(stereo not shown) [1-P20, 1-[2-(2-chlorophenyl)morpholin-4-yl]prop-2-en-1-one]", "viability at 48 h, 25 µM": 72.7}
{"compound": "Cc1ccc(C=C(C#N)C(=O)Nc2cc(Cl)ccc2Cl)s1", "note": "[9-E19, 2-cyano-N-(2,5-dichlorophenyl)-3-(5-methylthiophen-2-yl)prop-2-enamide]", "viability at 48 h, 25 µM": 107}
{"compound": "COC(=O)c1c(-c2ccccc2Cl)csc1NC(=O)CCl", "note": "[4-F07, methyl 2-(2-chloroacetamido)-4-(2-chlorophenyl)thiophene-3-carboxylate]", "viability at 48 h, 25 µM": 5.7}
{"compound": "Cc1cc(C=C(C#N)C(=O)Nc2cnn(C)c2)c(C)n1C1CCCCC1", "note": "[9-B17, 2-cyano-3-(1-cyclohexyl-2,5-dimethyl-1H-pyrrol-3-yl)-N-(1-methyl-1H-pyrazol-4-yl)prop-2-enamide]", "viability at 48 h, 25 µM": 96.1}
{"compound": "C=CC(=O)NCCc1ccc(S(C)(=O)=O)cc1", "note": "[2-A14, N-[2-(4-methanesulfonylphenyl)ethyl]prop-2-enamide]", "viability at 48 h, 25 µM": 93.7}
{"compound": "CN(C(=O)CCl)c1c(N)n(Cc2ccccc2)c(=O)[nH]c1=O", "note": "[4-E06, N-(6-amino-1-benzyl-2,4-dioxo-1,2,3,4-tetrahydropyrimidin-5-yl)-2-chloro-N-methylacetamide]", "viability at 48 h, 25 µM": 22.8}
{"compound": "N#CC(=CN1CCN(c2ccccc2)CC1)C(=O)Nc1ccc(F)cc1", "note": "[8-C20, 2-cyano-N-(4-fluorophenyl)-3-(4-phenylpiperazin-1-yl)prop-2-enamide]", "viability at 48 h, 25 µM": 72.5}
{"compound": "Cc1cc(C(=O)CCl)c(C)n1Cc1ccccc1Cl", "note": "[10-P16, 2-chloro-1-{1-[(2-chlorophenyl)methyl]-2,5-dimethyl-1H-pyrrol-3-yl}ethan-1-one]", "viability at 48 h, 25 µM": 0.942}
{"compound": "C=CC(=O)Nc1ccoc1C(=O)c1ccc(C)cc1", "note": "[1-A04, N-[2-(4-methylbenzoyl)furan-3-yl]prop-2-enamide]", "viability at 48 h, 25 µM": 0.123}
{"compound": "CC(C)Cn1c(N)c(C(=O)CCl)c(=O)n(C)c1=O", "note": "[10-M12, 6-amino-5-(2-chloroacetyl)-3-methyl-1-(2-methylpropyl)-1,2,3,4-tetrahydropyrimidine-2,4-dione]", "viability at 48 h, 25 µM": 97.1}
{"compound": "C=CC(=O)NCCCn1cnc2c1CCCC2", "note": "[3-K20, N-[3-(4,5,6,7-tetrahydro-1H-1,3-benzodiazol-1-yl)propyl]prop-2-enamide]", "viability at 48 h, 25 µM": 101}
{"compound": "O=C(CCl)Nc1ccccc1Sc1ccc(Cl)cc1", "note": "[4-O13, 2-chloro-N-{2-[(4-chlorophenyl)sulfanyl]phenyl}acetamide]", "viability at 48 h, 25 µM": 0.318}
{"compound": "CC(C)n1cc(C2=CCCN(C(=O)CCl)CC2)nn1", "note": "[5-F05, 2-chloro-1-{4-[1-(propan-2-yl)-1H-1,2,3-triazol-4-yl]-2,3,6,7-tetrahydro-1H-azepin-1-yl}ethan-1-one]", "viability at 48 h, 25 µM": 1.75}
{"compound": "C=CC(=O)Nc1ccc(S(C)(=O)=O)cc1OCC", "note": "[2-C08, N-(2-ethoxy-4-methanesulfonylphenyl)prop-2-enamide]", "viability at 48 h, 25 µM": 0.998}
{"compound": "Cc1cccc(C)c1NC(=O)CN(C)C(=O)CCl", "note": "[5-A13, 2-chloro-N-{[(2,6-dimethylphenyl)carbamoyl]methyl}-N-methylacetamide]", "viability at 48 h, 25 µM": 0.212}
{"compound": "N#CC(=Cc1c[nH]c2ccccc12)C(=O)Nc1ccccn1", "note": "[9-B10, 2-cyano-3-(1H-indol-3-yl)-N-(pyridin-2-yl)prop-2-enamide]", "viability at 48 h, 25 µM": 111}
{"compound": "C=CC(=O)N1CCC(C(=O)NCc2cc(C)c[nH]c2=O)CC1", "note": "[3-H03, N-[(5-methyl-2-oxo-1,2-dihydropyridin-3-yl)methyl]-1-(prop-2-enoyl)piperidine-4-carboxamide]", "viability at 48 h, 25 µM": 81.3}
{"compound": "O=C(CCl)NC(c1ccccc1)c1nccs1", "note": "(stereo not shown) [5-M13, 2-chloro-N-[phenyl(1,3-thiazol-2-yl)methyl]acetamide]", "viability at 48 h, 25 µM": 2.38}
{"compound": "C=CC(=O)N1CCC(C(=O)N(C)Cc2cc(C(C)(C)C)[nH]n2)CC1", "note": "[2-F10, N-[(5-tert-butyl-1H-pyrazol-3-yl)methyl]-N-methyl-1-(prop-2-enoyl)piperidine-4-carboxamide]", "viability at 48 h, 25 µM": 45.6}
{"compound": "CC(Cl)C(=O)N(C)Cc1cc(Cl)cn1C", "note": "(stereo not shown) [6-P21, 2-chloro-N-[(4-chloro-1-methyl-1H-pyrrol-2-yl)methyl]-N-methylpropanamide]", "viability at 48 h, 25 µM": 103}
{"compound": "C=CC(=O)Nc1ccc(C(C)Sc2ccccc2)cc1", "note": "(stereo not shown) [1-C21, N-{4-[1-(phenylsulfanyl)ethyl]phenyl}prop-2-enamide]", "viability at 48 h, 25 µM": 69.7}
{"compound": "N#CC(=Cc1ccc(Cl)cc1)C(=O)Nc1ccncc1", "note": "[8-K20, 3-(4-chlorophenyl)-2-cyano-N-(pyridin-4-yl)prop-2-enamide]", "viability at 48 h, 25 µM": 61.4}
{"compound": "C=C(Cl)CN(C(=O)CCl)C1CCc2ccccc21", "note": "(stereo not shown) [7-B18, 2-chloro-N-(2-chloroprop-2-en-1-yl)-N-(2,3-dihydro-1H-inden-1-yl)acetamide]", "viability at 48 h, 25 µM": 0.322}
{"compound": "C=CC(=O)NCC(C)Cn1nccc1C", "note": "(stereo not shown) [1-H14, N-[2-methyl-3-(5-methyl-1H-pyrazol-1-yl)propyl]prop-2-enamide]", "viability at 48 h, 25 µM": 87.8}
{"compound": "CCCCNC(=O)C(C#N)=Cc1cc(C)ccc1C", "note": "[9-C11, N-butyl-2-cyano-3-(2,5-dimethylphenyl)prop-2-enamide]", "viability at 48 h, 25 µM": 93.1}
{"compound": "C=CC(=O)N(C)c1ccc(C#N)c(Cl)c1", "note": "[3-G05, N-(3-chloro-4-cyanophenyl)-N-methylprop-2-enamide]", "viability at 48 h, 25 µM": 0.69}
{"compound": "Cc1cccc2[nH]cc(C(=O)CCl)c12", "note": "[10-H09, 2-chloro-1-(4-methyl-1H-indol-3-yl)ethan-1-one]", "viability at 48 h, 25 µM": 5.75}
{"compound": "C=CC(=O)Nc1cnn(CCN2CCCC2=O)c1", "note": "[3-M18, N-{1-[2-(2-oxopyrrolidin-1-yl)ethyl]-1H-pyrazol-4-yl}prop-2-enamide]", "viability at 48 h, 25 µM": 90}
{"compound": "Cn1cc(C=C(C#N)C(=O)NC2CCCC2)c(-c2ccncc2)n1", "note": "[9-L16, 2-cyano-N-cyclopentyl-3-[1-methyl-3-(pyridin-4-yl)-1H-pyrazol-4-yl]prop-2-enamide]", "viability at 48 h, 25 µM": 119}
{"compound": "C=CC(=O)NCCc1ccccc1OC", "note": "[2-O03, N-[2-(2-methoxyphenyl)ethyl]prop-2-enamide]", "viability at 48 h, 25 µM": 105}
{"compound": "O=C(CCl)Nc1ccc(S(=O)(=O)Nc2nccs2)cc1", "note": "[4-B14, 2-chloro-N-{4-[(1,3-thiazol-2-yl)sulfamoyl]phenyl}acetamide]", "viability at 48 h, 25 µM": 1.19}
{"compound": "C=CC(=O)N1CCCC1c1cc(C)no1", "note": "(stereo not shown) [3-G12, 1-[2-(3-methyl-1,2-oxazol-5-yl)pyrrolidin-1-yl]prop-2-en-1-one]", "viability at 48 h, 25 µM": 91.7}
{"compound": "O=C(CCl)NCCCN1CCCCCC1=O", "note": "[5-J10, 2-chloro-N-[3-(2-oxoazepan-1-yl)propyl]acetamide]", "viability at 48 h, 25 µM": 119}
{"compound": "CC(Cl)C(=O)N1C2CCC1CC(O)(Cc1ccc(F)cc1F)C2", "note": "(stereo not shown) [7-G18, 2-chloro-1-{3-[(2,4-difluorophenyl)methyl]-3-hydroxy-8-azabicyclo[3.2.1]octan-8-yl}propan-1-one]", "viability at 48 h, 25 µM": 60}
{"compound": "C=CC(=O)N[C@H]1CCO[C@@H]1c1ccnn1C(C)C", "note": "(racemic) [3-K05, rac-N-[(2R,3R)-2-[1-(propan-2-yl)-1H-pyrazol-5-yl]oxolan-3-yl]prop-2-enamide]", "viability at 48 h, 25 µM": 52.7}
{"compound": "CC(Cl)C(=O)Nc1ccc2ccccc2c1", "note": "(stereo not shown) [5-H10, 2-chloro-N-(naphthalen-2-yl)propanamide]", "viability at 48 h, 25 µM": 90.7}
{"compound": "O=C(CCl)NC1CCC2(CCC1(F)F)OCCO2", "note": "(stereo not shown) [5-G09, 2-chloro-N-{9,9-difluoro-1,4-dioxaspiro[4.6]undecan-8-yl}acetamide]", "viability at 48 h, 25 µM": 5.9}
{"compound": "Cc1ccc(C=C(C#N)C(=O)Nc2ccc(C(=O)O)cc2)o1", "note": "[8-C14, 4-[2-cyano-3-(5-methylfuran-2-yl)prop-2-enamido]benzoic acid]", "viability at 48 h, 25 µM": 109}
{"compound": "C=CC(=O)Nc1cn(CC(F)(F)F)nc1C", "note": "[3-D06, N-[3-methyl-1-(2,2,2-trifluoroethyl)-1H-pyrazol-4-yl]prop-2-enamide]", "viability at 48 h, 25 µM": 55.3}
{"compound": "COc1cccc(NC(=O)CN(C)C(=O)CCl)c1", "note": "[5-A03, 2-chloro-N-{[(3-methoxyphenyl)carbamoyl]methyl}-N-methylacetamide]", "viability at 48 h, 25 µM": 0.139}
{"compound": "CC(Cl)C(=O)N1C2C=C(c3ccccc3)CC1CC2", "note": "(stereo not shown) [7-C09, 2-chloro-1-{3-phenyl-8-azabicyclo[3.2.1]oct-2-en-8-yl}propan-1-one]", "viability at 48 h, 25 µM": 81.3}
{"compound": "COc1cc2c(cc1NC(=O)C(C)Cl)oc1ccccc12", "note": "(stereo not shown) [6-G09, 2-chloro-N-{4-methoxy-8-oxatricyclo[7.4.0.0,2,7]trideca-1(9),2(7),3,5,10,12-hexaen-5-yl}propanamide]", "viability at 48 h, 25 µM": 93}
{"compound": "COC(=O)C1(NC(=O)CCl)CC1", "note": "[6-I06, methyl 1-(2-chloroacetamido)cyclopropane-1-carboxylate]", "viability at 48 h, 25 µM": 101}
{"compound": "c1nc(N2CCSSCC2)c2c3c(sc2n1)CCCC3", "note": "[10-M22, 3-(1,2,5-dithiazepan-5-yl)-8-thia-4,6-diazatricyclo[7.4.0.0,2,7]trideca-1(9),2,4,6-tetraene]", "viability at 48 h, 25 µM": 78.3}
{"compound": "CCCc1ccc(C(=O)CCl)cc1", "note": "[10-C04, 2-chloro-1-(4-propylphenyl)ethan-1-one]", "viability at 48 h, 25 µM": 54.6}
